Results on one molecule are retold here after patent US6809112B2, “Method of treating sexual disturbances” (priority 1999, dated 2004).

SMILES strings stand for the structures.

In general, melting point refers to the temperature, or range, at which the solid turns liquid. As to `CN[C@@H]1Cc2cccc3[nH]c(=S)n(c23)C1.O=C(O)CC(O)C(=O)O`, the melting point lay within 195 to 196 °C.
